The text below walks through data of ChEMBL document CHEMBL5500412, “Discovery of Highly Selective, Potent, Covalent, and Orally Bioavailable Factor XIIa Inhibitors for the Treatment of Thrombo-Inflammation” (J Med Chem, 2024).

In series [1] the target is Prothrombin (Homo sapiens, UniProt P00734). Description: Inhibition of thrombin (unknown origin) using H-D-Phe-Pip-Arg-pNA-2HCl as substrate incubated for 20 mins followed by substrate addition by spectrophotometric analysis.
The test system of series [2] is Mus musculus. The series can be described thus: Antiinflammatory activity in carrageenan-induced thrombosis in male BALB/c mouse model assessed as reduction in IL-1 beta level administered as oral dose by ELISA method. Format: functional, organism-based. Conditions: dose 10-30 mg/kg.
A short description of series [3]: Selectivity index, ratio of IC50 for chymotrypsin (unknown origin) to IC50 for FXIIa (unknown origin).
Series [4] has as its system Mus musculus. The series can be described thus: Antiinflammatory activity in carrageenan-induced thrombosis in male BALB/c mouse model assessed as reduction in IL-6 level administered as oral dose by ELISA method. Conditions: dose 10-30 mg/kg. Format: functional, organism-based. (In general: ELISA stands for enzyme-linked immunosorbent assay.)
Series [5] concerns Smooth muscle cell. Description: Ant-icalcification activity in human aortic Smooth muscle cell at 10 uM measured after 14 days with replacement of fresh medium for every 2 to 3 days by Alizarin red S staining based analysis. Conditions: time 14.0 day. Format: functional.
Series [6] concerns the target T1, Coagulation factor XII (Homo sapiens, UniProt P00748).
T1 sequence (P00748 whole entry): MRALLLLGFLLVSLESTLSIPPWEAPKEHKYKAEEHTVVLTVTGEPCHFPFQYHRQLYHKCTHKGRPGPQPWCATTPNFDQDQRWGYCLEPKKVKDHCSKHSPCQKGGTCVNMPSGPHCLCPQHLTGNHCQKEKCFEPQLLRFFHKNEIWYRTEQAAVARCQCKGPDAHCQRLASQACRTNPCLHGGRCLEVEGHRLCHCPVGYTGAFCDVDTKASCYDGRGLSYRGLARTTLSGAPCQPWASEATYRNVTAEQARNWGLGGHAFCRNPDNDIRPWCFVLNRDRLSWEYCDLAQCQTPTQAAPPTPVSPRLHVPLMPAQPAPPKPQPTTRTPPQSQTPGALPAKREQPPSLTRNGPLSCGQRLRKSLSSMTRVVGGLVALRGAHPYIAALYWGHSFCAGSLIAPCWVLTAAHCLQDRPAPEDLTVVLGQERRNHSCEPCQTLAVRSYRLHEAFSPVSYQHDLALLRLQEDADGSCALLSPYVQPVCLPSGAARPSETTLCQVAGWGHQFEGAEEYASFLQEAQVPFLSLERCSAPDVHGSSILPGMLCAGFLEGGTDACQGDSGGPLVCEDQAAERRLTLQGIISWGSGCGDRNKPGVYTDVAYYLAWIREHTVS
Description: Inhibition of FXIIa (unknown origin) using H-D-Pro-Phe-Arg-pNA as substrate incubated for 20 mins followed by substrate addition by spectrophotometric analysis.

The nature of series [7]: Selectivity index, ratio of IC50 for tPA (unknown origin) to IC50 for FXIIa (unknown origin).
Series [8] in a line: Toxicity in BALB/c mouse assessed as effect on HBDH level in serum at 60 to 100 mg/kg, po measured after 14 days. Format: organism-based. Conditions: in vivo, 336 h, dose 60-100 mg/kg, time 14 day.
Series [9] relates to Mus musculus. The series can be described thus: Antiinflammatory activity in carrageenan-induced thrombosis in male BALB/c mouse model assessed as reduction in IL-6 level at 10 to 30 mg/kg, po by ELISA method. Conditions: dose 10-30 mg/kg. Format: functional, organism-based.
Series [10] can be described thus: Toxicity in BALB/c mouse assessed as prolongation of bleeding time at 60 mg/kg, po measured after 90 mins. Format: organism-based. As to conditions: in vivo, 1.5 h.
Series [11] deals with T1, Coagulation factor XII. The series can be described thus: Binding affinity to FXIIa (unknown origin) assessed as inhibition constant using H-D-Pro-Phe-Arg-pNA.2HCl as substrate by spectrophotometric analysis.
Series [12] in a line: AUC (0 to infinity) in BALB/c mouse at 5 mg/kg, po measured upto 24 hrs by LC-MS/MS analysis. Format: ADME, organism-based. As to conditions: in vivo.
The target of series [13] is T2, Coagulation factor XII (Homo sapiens) (UniProt P00748).
T2 sequence (whole entry): T1 sequence (P00748 whole entry)
The series can be described thus: Binding affinity to FXIIa (unknown origin) assessed as inactivation rate using H-D-Pro-Phe-Arg-pNA.2HCl as substrate by spectrophotometric analysis.

The nature of series [14]: Toxicity in BALB/c mouse assessed as effect on ALT level in serum at 60 to 100 mg/kg, po measured after 14 days. Conditions: in vivo, 336 h, dose 60-100 mg/kg, time 14 day. Format: organism-based.
Series [15] is described as follows: Toxicity in BALB/c mouse assessed as effect on UA level in serum at 60 to 100 mg/kg, po measured after 14 days. Format: organism-based. Conditions: in vivo, 336 h, dose 60-100 mg/kg, time 14 day.
The nature of series [16]: Toxicity in BALB/c mouse assessed as effect on liver at 60 to 100 mg/kg, po measured after 14 days by H and E staining based analysis. Format: organism-based. Conditions: in vivo, 336 h, dose 60-100 mg/kg, time 14 day.
Series [17] concerns the target T2, Coagulation factor XII (Homo sapiens). The series can be described thus: Covalent inhibition of FXIIa (unknown origin) at 20 to 40 nM measured after 10 mins. Conditions: dose 20-40 nM.
Series [18] in a line: Clearance in BALB/c mouse at 1 mg/kg, iv measured upto 24 hrs by LC-MS/MS analysis. Format: ADME, organism-based. Conditions: in vivo.
Series [19] concerns the target T2, Coagulation factor XII (Homo sapiens). Description: Binding affinity to FXIIa (unknown origin) assessed as Kinact/Ki using H-D-Pro-Phe-Arg-pNA.2HCl as substrate by spectrophotometric analysis.
Series [20] in a line: Toxicity in BALB/c mouse assessed as effect on heart at 60 to 100 mg/kg, po measured after 14 days by H and E staining based analysis. Format: organism-based. As to conditions: in vivo, 336 h, dose 60-100 mg/kg, time 14 day.
A short description of series [21]: Toxicity in BALB/c mouse assessed as effect on CREA level in serum at 60 to 100 mg/kg, po measured after 14 days. Format: organism-based. As to conditions: in vivo, 336 h, dose 60-100 mg/kg, time 14 day.
Series [22] can be described thus: AUC (0 to infinity) in BALB/c mouse at 1 mg/kg, iv measured upto 24 hrs by LC-MS/MS analysis. Conditions: in vivo. Format: ADME, organism-based.
A short description of series [23]: Toxicity in BALB/c mouse assessed as effect on LDH level in serum at 60 to 100 mg/kg, po measured after 14 days. As to conditions: in vivo, 336 h, dose 60-100 mg/kg, time 14 day. Format: organism-based.
Series [24] in a line: Toxicity in BALB/c mouse assessed as effect on UREA level in serum at 60 to 100 mg/kg, po measured after 14 days. Format: organism-based. Conditions: in vivo, 336 h, dose 60-100 mg/kg, time 14 day.
Series [25] is described as follows: Apparent volume of distribution in BALB/c mouse at 1 mg/kg, iv measured upto 24 hrs by LC-MS/MS analysis. Format: ADME, organism-based. As to conditions: in vivo, read-out: Vz.
A short description of series [26]: MRT (0 to infinity) in BALB/c mouse at 1 mg/kg, iv measured upto 24 hrs by LC-MS/MS analysis. Conditions: in vivo. Format: ADME, organism-based.
In series [27] the target is T2, Coagulation factor XII (Homo sapiens). Description: Inhibition of FXIIa (unknown origin) using H-D-Pro-Phe-Arg-pNA as substrate preincubated for 20 mins followed by 100 fold dilution upto 120 mins then substrate addition for 60 mins by jump dilution assay. Conditions: time <= 200.0 min.
Series [28] is described as follows: Toxicity in BALB/c mouse assessed as effect on ALP level in serum at 60 to 100 mg/kg, po measured after 14 days. Format: organism-based. As to conditions: in vivo, 336 h, dose 60-100 mg/kg, time 14 day.
Series [29] is described as follows: Half life in BALB/c mouse at 1 mg/kg, iv measured upto 24 hrs by LC-MS/MS analysis. Format: ADME, organism-based. Conditions: in vivo.
The nature of series [30]: Toxicity in BALB/c mouse assessed as effect on spleen at 60 to 100 mg/kg, po measured after 14 days by H and E staining based analysis. Format: organism-based. Conditions: in vivo, 336 h, dose 60-100 mg/kg, time 14 day.
For series [31], the system named is Mus musculus. The series can be described thus: Antiinflammatory activity in carrageenan-induced thrombosis in male BALB/c mouse model assessed as reduction in IL-1 beta level at 10 to 30 mg/kg, po by ELISA method. Format: functional, organism-based. Conditions: dose 10-30 mg/kg.

The IC50 is the concentration needed to halve the response being measured. A low value points to greater potency in that assay. The term Ki denotes the equilibrium dissociation constant of an inhibitor or competing ligand from its target. For orientation: AUC(0-inf) means the area under the concentration-time curve extrapolated to infinity. The MRT inf is the average time that molecules of a dose stay in the body. For orientation: half-life means the time needed for the level to fall by half in the phase considered. Higher therefore signals slow decline.

The structures appear in SMILES notation. Active and inactive are the calls of the source. Where only a bound is given, the exact number is not on record here.

As for `CC(C)N1CCN(c2ccc(C(=O)n3nc(-c4ccccn4)nc3N)c3ccccc23)CC1`, the figures for the 50% inhibitory concentration (IC50) in series [1] and in series [6] were 20 µM and 0.037 µM, respectively. Besides, the Activity entry in [2] and in series [4] was “Dose-Dependent Effect” each time. The Ratio IC50 in series [3] and in series [7] was > 670 throughout. Further, the result in series [5] was Active.

Turning to `CC(C)N1CCCN(c2ccc(C(=O)n3nc(-c4ccccn4)nc3N)c3ccccc23)CC1`, the Activity result in [8], in series [10], in series [14], in series [15], in series [16] and in series [20] was “Non-Toxic” throughout. Also, the Activity entry in series [21], in series [23], in [24], in [28] and in series [30] was “Non-Toxic” in each case. In addition, the outcome in [9] and in [31] was Active. The Ki in series [11] worked out at 0.0114 µM. Moreover, the AUC(0-inf) came to 17.8 ng·h/mL in series [12] and 13.3 ng·h/mL in series [22]. The Kinact in series [13] came out at 0.027 min⁻¹. Moreover, in series [1], the IC50 came to 7 µM. The Ratio IC50 in series [3] and in [7] was > 1190 throughout. Also, the inhibition result in [17] is “Active”. Further, the CL in [18] was 1270 mL/min/kg. In [19], the K was 2.37 10^6/M/min. Also, the Vd in series [25] was 105 L/kg. For the same molecule, the MRT inf in [26] is 1.58 h. For the same molecule, the inhibition entry in series [27] was “inactive”. Besides, in [29], the half-life is 0.75 h.
